Laboratory results published in US20100298245A1, “Pharmaceutical Composition for the Treatment of IL-8 mediated diseases” (Revotar Biopharmaceuticals AG, priority 2007, published 2010).

System: Interleukin 8 (IL-8)
Assay: Human clinical trial in COPD patients: IL-8 level in induced sputum supernatant (enzyme immunoassay)
Format: in vivo
Protocol: A human clinical trial (trial) was conducted to investigate effects of the disodium salt of compound of formula (I) (1,6-Bis [3-(3-carboxymethylphenyl)-4-(2-α-D-mannopyranosyloxy)-phenyl] hexan) on patients with chronic obstructive pulmonary disease (COPD). The trial was carried out according to known methods and according to the “good clinical practices” (GCP), applicable regulatory requirements, and was based on written approval of the Independent Ethics Committee (IEC). Patients were enrolled in the trial based on inclusion and exclusion criteria known.
Patients were treated by inhalation of the disodium salt of the compound of formula (I) for 10 days. The unit dose strength for nebulization was 70 mg in 4 ml of 0.9% NaCl twice a day (bid). To investigate laboratory parameters the procedure of induced sputum (IS) was used to harvest cells and sputum supernatant for further analysis.
To investigate levels of Interleukin 8 (IL-8) in the sputum supernatant, sputum was frozen after collection. Once, all samples were collected, levels of IL-8 were analyzed by using a commercial available enzyme immunoassay for the in vitro quantification of human IL-8 in biological fluids. IL-8 sample concentrations were determined employing calibration curves.

With `O=C(O)Cc1cccc(-c2cc(CCCCCCc3ccc(O[C@H]4O[C@H](CO)[C@@H](O)[C@H](O)[C@@H]4O)c(-c4cccc(CC(=O)O)c4)c3)ccc2O[C@H]2O[C@H](CO)[C@@H](O)[C@H](O)[C@@H]2O)c1` [compound of formula (I), 1,6-Bis [3-(3-carboxymethylphenyl)-4-(2-α-D-mannopyranosyloxy)-phenyl] hexane] as the compound, how does the “median value of levels of IL8 in sputum supernatant after treatment” value (COPD patients, induced sputum supernatant, after inhalation of disodium salt 70 mg in 4 ml 0.9% NaCl bid for 10 days, Mann-Whitney Rank Sum Test p=0.031 vs before) read?
Its value is 4985 pg/mL.

What about the “median value of levels of IL8 in sputum supernatant before treatment” value (COPD patients, induced sputum supernatant, baseline before inhalation treatment) of the same compound?
The value was 15419 pg/mL.

What about the “change of the IL-8 medians” value (after vs before treatment, inhalation 70 mg bid for 10 days, statistically significant (p=0.031) and clinically relevant) of the same compound?
The value was −68%.
